Results: US20020150912A1, “Reporter system for cell surface receptor-ligand binding” (priority 2000, published 2002)
Read-outs that look alike come from different tables or passages of the source. One block for each compound: values may come before it.

Legend:
chemokine receptor, CCR5 [1] = molecular target: T1, chemokine receptor, CCR5 (Homo sapiens, UniProt P51681); assay: HF1pCCR5 reporter cell luciferase assay; format: cell-based; parameters: All receptor ORFs were inserted into the pIRESpuro vector (Clontech) by standard techniques; expressed in transfected cells; host or cells: HeLa-derived HF1 reporter cells (HF1pCCR5), pIRESpuro vector; details: CCR5 stably expressed in HF1 reporter cells; read-out: EC50 (agonist concentration giving half maximum effect)
[2] = test system: endogenous ATP receptors present in the HeLa cells; assay: HF1 reporter cell luciferase assay, endogenous ATP receptors; format: cell-based; details: stimulation for 16 hours, read-out: EC50, TRE-mediated luciferase response
Description: FIG. 5 illustrates the response of endogenous ATP receptors present in the HeLa cells used to establish a reporter cell line, HF1, of the invention.
A. Dose-response curve following stimulation with varying concentrations of ATP for 16 hours. […] Error bars indicate± SEM.
(§1) The medium was removed and cell lysis buffer added. Plates were stored at −70° C. until further analysis.

chemokine receptor, CCR5 [3] = molecular target: T1, chemokine receptor, CCR5; assay: cell-based or functional assay
[4] = test system: reporter plasmids in HeLa cells; assay: HeLa cells transiently transfected with reporter plasmids, luciferase amplification; format: cell-based; details: 100 nM PMA, 10^−6 M thapsigargin where added, 10 h, ratio of RLU, stimulated to non-stimulated cells
Description: (§2) Cells electroporated for transient expression were stimulated with 100 nM PMA for 10 hours. Amplification was calculated as the ratio between the relative luminescence units (RLU) of stimulated and non-stimulated cells. Results are expressed as mean values+SEM of three to four independent transfection experiments each performed in triplicate; n.d.=not determined.
as §1
(§3) The prototypic reporter plasmids (pcFUS2; pcFUS2-6xSTAT/NFκB; pcFUS3 and pGL3-12xSTAT/NFκB) were used to transfect HeLa cells transiently by electroporation. Cells were stimulated 24 h post transfection with 100 nM PMA or 100 nM PMA and 10^−6 M thapsigargin or treated as controls. After 10 h of incubation, the cells were lysed and assayed.

HeLa cells = assay: Luciferase assay of HeLa cells transiently transfected with prototypic reporter plasmids; format: cell-based; details: Homo sapiens, 10 h, 100 nM PMA, or 100 nM PMA and 10^−6 M thapsigargin, read-out: Amplification value
Description: as §2, §1, §3

[5] = plasmid pcFUS3 (6 × STAT/NFκB; 9 × AP-1)

T1 sequence (P51681 whole entry): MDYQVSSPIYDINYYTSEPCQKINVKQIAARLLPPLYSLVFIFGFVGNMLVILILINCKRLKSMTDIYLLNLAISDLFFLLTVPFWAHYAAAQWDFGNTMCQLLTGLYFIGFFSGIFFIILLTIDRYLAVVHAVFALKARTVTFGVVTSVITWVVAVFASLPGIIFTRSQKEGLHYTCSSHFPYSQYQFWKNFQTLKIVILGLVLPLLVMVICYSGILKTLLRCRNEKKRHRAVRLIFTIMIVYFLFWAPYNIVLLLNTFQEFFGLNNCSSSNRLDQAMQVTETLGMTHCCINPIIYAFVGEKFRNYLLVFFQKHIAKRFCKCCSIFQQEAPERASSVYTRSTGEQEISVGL

EC50 (chemokine receptor, CCR5 [1]): 111 nM
Compound: RANTES: a peptide (having the sequence RANTES), agonist of the chemokine receptor CCR5

Compound: Nc1ncnc2c1ncn2[C@@H]1O[C@H](COP(=O)(O)OP(=O)(O)OP(=O)(O)O)[C@@H](O)[C@H]1O [ATP]
EC50 [2]: 107000 nM

EC50 (agonist concentration giving half maximum effect), luciferase reporter in HF1 cells stably expressing CCR5 (chemokine receptor, CCR5 [3]): 111 nM
Compound: RANTES (from UniProt P13501 24-91) (ligand)

Compound: CCCCCCCCCCCCCC(=O)O[C@@H]1[C@@H](C)[C@@]2(O)[C@@H](C=C(CO)C[C@]3(O)C(=O)C(C)=C[C@@H]23)[C@@H]2C(C)(C)[C@]12OC(C)=O [PMA]
Amplification value ([4]; plasmid pGL3-12 × STAT/NFκB): 4.16 ± 2.00 | Amplification value ([4]; plasmid pcFUS2 (9 × AP-1)): 2.53 ± 2.00 | Amplification value ([4]; plasmid pcFUS2-6 × STAT/NFκB): 3.78 ± 1.44 | Amplification value [4, 5]: 7.37 ± 3.29 | fold induction at 0.1 µM (HeLa cells; plasmid pGL3-12 × STAT/NFκB): 4.16 ± 2 | fold induction at 0.1 µM (HeLa cells; plasmid pcFUS2 (9 × AP-1)): 2.53 ± 2 | fold induction at 0.1 µM (HeLa cells; plasmid pcFUS2-6 × STAT/NFκB): 3.78 ± 1.44 | fold induction at 0.1 µM (HeLa cells; [5]): 7.37 ± 3.29
